Consider two compounds from US20250129135A1, “Multi-Agonist and Use Thereof” (priority 2021, published 2025).

The structures appear in SMILES notation. Starred links: 1 amine or outer side, 2 acyl side, 3 side chain; linkers in the order of their positions; H or OH if unused. Non-standard residues stand in square brackets, D forms with d. Residues, ends and D or L forms follow the SMILES beside them. Groups on a side chain read outwards from the residue. *: point of attachment. C20 diacid = O=C(O)CCCCCCCCCCCCCCCCCCC(=O)*; αMePhe(2-F) = C[C@](N)(Cc1ccccc1F)C(=O)O; γGlu = O=C(O)[C@H](CCC(=O)[*:2])N[*:1]; αMeL = CC(C)C[C@](C)(N)C(=O)O; AEEA = NCCOCCOCC(=O)O; Aib = CC(C)(N)C(=O)O

Assay [1] relates to human primary liver cells. In kind it is cell-based. As to conditions: for Rel. A (Relative Activity) on human primary liver cells: relative to GCG. Put shortly:
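cAMP readout after 60 min with detection reagent, following 60 min room-temperature compound incubation. Cells were primary human liver cells thawed at 37° C and resuspended in HBSS.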

In assay [2] the test system is RIN-m5F cells. In kind it is cell-based, rat. As to conditions: for Rel. A (Relative Activity) on RIN-m5F: relative to GLP-1(7-37). Put shortly:
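After 60 min room-temperature exposure of HBSS-suspended RIN-m5F cells to compound and another 60 min with detection reagent, cellular cAMP level was determined.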

The target in assay [3] is Human GLP-1R (Homo sapiens, UniProt P43220). Kind of assay: cAMP (HTRF) activity in HEK-293 cells stably overexpressing human GLP-1 receptor. In kind it is cell-based. Set-up: expressed in transfected cells; host or cells: HEK-293. Particulars: for Human GLP-1R Rel. A (Relative Activity): EC50 of human GLP-1 (7-37) / EC50 of compound; for EC50: stable transfected cell cAMP activity, at least 3 independent tests. The essentials: (§1)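 Agonism was assessed from intracellular cAMP by HTRF. Cells resuspended in HBSS were treated with compound for 60 minutes at room temperature, then with detection reagent for a further 60 minutes. EC50 (nM) values came from concentration–response curves.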

Assay [4] concerns the target T1, Human GIP R (Homo sapiens, UniProt P48546).
T1 construct: expressed in transfected cells; host or cells: CHO
T1 sequence (P48546 22-466): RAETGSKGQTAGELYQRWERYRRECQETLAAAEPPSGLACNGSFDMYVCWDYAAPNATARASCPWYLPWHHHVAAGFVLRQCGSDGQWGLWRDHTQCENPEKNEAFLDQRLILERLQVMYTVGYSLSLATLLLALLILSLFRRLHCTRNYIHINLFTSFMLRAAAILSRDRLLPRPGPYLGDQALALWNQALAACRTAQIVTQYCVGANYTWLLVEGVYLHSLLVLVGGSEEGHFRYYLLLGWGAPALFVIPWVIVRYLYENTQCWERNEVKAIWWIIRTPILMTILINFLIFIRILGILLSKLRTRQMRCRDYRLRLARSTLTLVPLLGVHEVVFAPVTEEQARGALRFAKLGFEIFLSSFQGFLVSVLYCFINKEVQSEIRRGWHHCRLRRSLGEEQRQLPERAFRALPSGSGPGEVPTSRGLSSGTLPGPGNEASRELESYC
The assay can be described thus: cAMP (HTRF) activity in CHO cells stably overexpressing GIP receptor. In kind it is cell-based. As to conditions: for Human GIP R Rel. A (Relative Activity): EC50 of human GIP / EC50 of compound; for EC50: stable transfected cell cAMP activity, at least 3 independent tests. The essentials: as §1
Background: Time-resolved FRET reads energy transfer from a long-lived donor to a nearby acceptor.

For assay [5], the system named is C57 BL/6J DIO mice. Kind of assay: In vivo pharmacodynamics in high-fat diet induced obesity (DIO) mice. Particulars: Mean±SEM; for LDL-C / TC (total cholesterol) / TG (plasma triglycerides) / Blood sugar (fasting blood glucose) / Insulin (blood): Day 15. Set-up: species or system mouse. The essentials:
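DIO mice (60 kcal% fat diet) dosed subcutaneously in 1×PBS, 5 ml/kg, every three days for 15 days. Daily body weight and food intake as % change from baseline; day 15 fasting glucose, plasma TC, LDL-C, TG, insulin and liver TG. Mean±SEM, one-way ANOVA with Dunnett's versus vehicle.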

Sequence of Human GLP-1R (P43220 24-463): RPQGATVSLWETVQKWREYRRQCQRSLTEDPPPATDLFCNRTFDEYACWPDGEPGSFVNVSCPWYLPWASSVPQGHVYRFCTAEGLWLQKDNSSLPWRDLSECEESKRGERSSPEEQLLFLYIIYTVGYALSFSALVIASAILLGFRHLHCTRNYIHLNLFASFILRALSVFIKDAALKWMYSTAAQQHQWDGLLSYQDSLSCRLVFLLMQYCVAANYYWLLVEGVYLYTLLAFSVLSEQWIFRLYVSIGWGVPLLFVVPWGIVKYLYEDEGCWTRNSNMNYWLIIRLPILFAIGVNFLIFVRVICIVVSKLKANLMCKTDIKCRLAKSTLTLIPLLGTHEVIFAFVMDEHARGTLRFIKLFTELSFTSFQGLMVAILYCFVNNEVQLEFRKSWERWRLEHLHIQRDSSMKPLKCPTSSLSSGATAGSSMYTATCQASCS

For the compound `CC[C@H](C)[C@H](NC(=O)[C@H](Cc1ccccc1)NC(=O)[C@H](C)NC(=O)C(C)(C)NC(=O)[C@H](CCC(N)=O)NC(=O)[C@H](C)NC(=O)[C@H](CCCCNC(=O)COCCOCCNC(=O)COCCOCCNC(=O)CC[C@H](NC(=O)CCCCCCCCCCCCCCCCCCC(=O)O)C(=O)O)NC(=O)[C@H](CCCCN)NC(=O)[C@H](CC(=O)O)NC(=O)[C@H](CC(C)C)NC(=O)[C@H](Cc1ccccc1)NC(=O)[C@@H](NC(=O)[C@H](CO)NC(=O)[C@H](Cc1ccc(O)cc1)NC(=O)[C@H](CC(=O)O)NC(=O)[C@H](CO)NC(=O)[C@@H](NC(=O)[C@](C)(Cc1ccccc1F)NC(=O)[C@@H](NC(=O)CNC(=O)[C@H](CCC(N)=O)NC(=O)C(C)(C)NC(=O)[C@@H](N)Cc1ccc(O)cc1)[C@@H](C)O)[C@@H](C)O)[C@@H](C)CC)C(=O)N[C@@H](CCC(=O)O)C(=O)N[C@@H](Cc1ccc(O)cc1)C(=O)N[C@@H](CC(C)C)C(=O)N[C@@H](CC(C)C)C(=O)N[C@@H](CCC(=O)O)C(=O)NC(C)(C)C(=O)N[C@@H](Cc1c[nH]cn1)C(=O)N1CCC[C@H]1C(=O)N[C@@H](CO)C(=O)N[C@@H](CO)C(=O)NCC(=O)N[C@@H](C)C(=O)N1CCC[C@H]1C(=O)N1CCC[C@H]1C(=O)N1CCC[C@H]1C(=O)N[C@@H](CO)C(N)=O` [Compound 18], in assay [1], a half-maximal effect (EC50) was put at 622 pM and the “Rel. A (Relative Activity) on human primary liver cells” value turned out to be 625.56%. Also, in assay [2], the concentration giving a half-maximal response (EC50) worked out at 214 pM and the “Rel. A (Relative Activity) on RIN-m5F” value came out at 482.24%. In assay [3], the “Human GLP-1R Rel. A (Relative Activity)” value was 366.67% and it took 12 pM to reach a half-maximal effect (EC50). Besides, in assay [4], the “Human GIP R Rel. A (Relative Activity)” value was determined as 861.90% and the EC50 came to 21 pM. Besides, the Weight change in assay [5] (Table 6-1, 3 nmol/kg s.c. Q3D for 15 days) is −22.2 ± 0.89%. Moreover, the Weight change in assay [5] (Table 6-1, 10 nmol/kg s.c. Q3D for 15 days) is recorded as −30.6 ± 1.26%. Moreover, the Weight change in assay [5] (Table 6-1, 30 nmol/kg s.c. Q3D for 15 days) is on record as −45.0 ± 1.52%. For the same compound, in assay [5] (Table 7-1, 3 nmol/kg), the LDL-C stood at 0.60 ± 0.043 mM, the “TC (total cholesterol)” value was determined as 3.77 ± 0.234 mM and the “TG (plasma triglycerides)” value is given as 0.90 ± 0.027 mM. For the same compound, in assay [5] (Table 7-1, 30 nmol/kg), the LDL-C was 0.35 ± 0.036 mM, the “TC (total cholesterol)” value was found to be 2.32 ± 0.161 mM and the “TG (plasma triglycerides)” value was found to be 0.61 ± 0.041 mM. In assay [5] (Table 8-1, 3 nmol/kg), the “Blood sugar (fasting blood glucose)” value stood at 98.5 ± 9.17 mg/dL and the “Insulin (blood)” value was found to be 21.2 ± 3.73 mIU/L.

Consider `CC[C@H](C)[C@H](NC(=O)[C@H](Cc1ccccc1)NC(=O)[C@H](C)NC(=O)C(C)(C)NC(=O)[C@H](CCC(N)=O)NC(=O)[C@H](C)NC(=O)[C@H](CCCCNC(=O)COCCOCCNC(=O)COCCOCCNC(=O)CC[C@H](NC(=O)CCCCCCCCCCCCCCCCCCC(=O)O)C(=O)O)NC(=O)[C@H](CCCCN)NC(=O)[C@H](CC(=O)O)NC(=O)[C@H](CC(C)C)NC(=O)[C@](C)(CC(C)C)NC(=O)[C@@H](NC(=O)[C@H](CO)NC(=O)[C@H](Cc1ccc(O)cc1)NC(=O)[C@H](CC(=O)O)NC(=O)[C@H](CO)NC(=O)[C@@H](NC(=O)[C@](C)(Cc1ccccc1F)NC(=O)[C@@H](NC(=O)CNC(=O)[C@H](CCC(N)=O)NC(=O)C(C)(C)NC(=O)[C@@H](N)Cc1ccc(O)cc1)[C@@H](C)O)[C@@H](C)O)[C@@H](C)CC)C(=O)N[C@@H](CCC(=O)O)C(=O)N[C@@H](Cc1ccccc1)C(=O)N[C@@H](CC(C)C)C(=O)N[C@@H](CC(C)C)C(=O)N[C@@H](CCC(=O)O)C(=O)N[C@H](C(=O)NCC(=O)N1CCC[C@H]1C(=O)N[C@@H](CO)C(=O)N[C@@H](CO)C(=O)NC(C)(C)C(=O)N[C@@H](Cc1c[nH]cn1)C(=O)N1CCC[C@H]1C(=O)N1CCC[C@H]1C(=O)N1CCC[C@H]1C(=O)N[C@@H](CO)C(N)=O)[C@@H](C)O` [Compound 38] (H-Y[Aib]QGT[αMePhe(2-F)]TSDYSI[αMeL]LDKK([AEEA-AEEA-γGlu-C20 diacid])AQ[Aib]AFIEFLLETGPSS[Aib]HPPPS-NH2; N-terminus assumed), for which, in assay [1], a half-maximal response (EC50) required 899 pM and the “Rel. A (Relative Activity) on human primary liver cells” value is reported as 432.81%. Also, in assay [2], the EC50 stood at 173 pM and the “Rel. A (Relative Activity) on RIN-m5F” value is listed as 596.53%. In assay [3], the “Human GLP-1R Rel. A (Relative Activity)” value is listed as 115.79% and the half-maximal effective concentration (EC50) was found to be 38 pM. Further, in assay [4], the “Human GIP R Rel. A (Relative Activity)” value is recorded as 1392.31% and the midpoint of the response, the EC50, lay at 13 pM. In assay [5] (Table 6-2, 3 nmol/kg s.c. Q3D for 15 days), the Weight change is on record as −19.0 ± 1.30%. For the same compound, the Weight change in assay [5] (Table 6-2, 10 nmol/kg s.c. Q3D for 15 days) is recorded as −25.7 ± 2.26%. Moreover, in assay [5] (Table 7-2, 3 nmol/kg), the LDL-C is 0.39 ± 0.025 mM, the “TC (total cholesterol)” value was 3.49 ± 0.151 mM and the “TG (plasma triglycerides)” value was determined as 0.74 ± 0.019 mM. Moreover, in assay [5] (Table 7-2, 10 nmol/kg), the LDL-C amounted to 0.35 ± 0.053 mM, the “TC (total cholesterol)” value came out at 3.12 ± 0.186 mM and the “TG (plasma triglycerides)” value is on record as 0.63 ± 0.051 mM. In addition, in assay [5] (Table 8-2, 3 nmol/kg), the “Blood sugar (fasting blood glucose)” value came to 151.7 ± 8.46 mg/dL and the “Insulin (blood)” value worked out at 24.9 ± 5.43 mIU/L.

One may read the EC50 as the concentration needed to bring the measured effect to its halfway point. The low end stands for higher potency in that assay, the high end for lower potency in that assay.
